Data published in patent US5681817A, “Treatment of ovarian estrogen dependent conditions” (The Medical College of Hampton Roads, priority 1994, dated 1997).
Entries after “also recorded” stand apart in the source; their conditions may differ.

Key:
uterine leiomyomata = conditions: cited from earlier work
endometriosis = conditions: cited from earlier work
[1] = test system: female cynomolgus monkeys; assay: Ovulation and serum estradiol/progesterone by RIA in monkeys with induced endometriosis; type: in vivo, cynomolgus monkeys (Macaca facularis); conditions: for mean tonic serum estradiol level: RIA, FIG. 1, control 40.6±43; for suppression of ovulation: treatment alone
Experimental: For the purposes of this study, the gonadotropin releasing hormone agonist selected was leuprolide acetate, the anti-progestin selected was RU 486 and these were administered to female cynomolgus monkeys, which are recognized to be a highly desirable model for human research.
Thirty-six adult female cynomolgus monkeys (Macaca facularis) having regular menstrual cycles were housed in individual cages which had food and water available ad librium.
(§1) Using anesthesia (ketamine 20 mg/kg im, xylazine, 1 mg/kg) on day 3 of the menstrual cycle, a diagnostic laparoscopy was performed to rule out pelvic adhesive disease or extant endometriosis. Monkeys with observable pelvic adhesions were excluded. Blood was collected on menstrual days 8-14 via venipuncture (ketamine 10 mg/kg im), and serum assayed for estradiol-17β by RIA. Laparotomy (ketamine 20 mg/kg, xylazine 1 mg/kg) was performed 3-5 days after a clearly defined pre-ovulatory estradiol peak. A 2 cm fundal hysterotomy was performed and approximately 100 mg of endometrium removed by curettage and minced in sterile 0.9% saline. The uterine incision was closed with 4-0 vicryl suture. The minced endometrial tissue was injected sub-peritoneally into five sites, namely, the left and right vesicouterine fold, right and left broad ligaments, and the cul-de-sac.
(§2) Primates were divided equally into four treatment groups (N=8). Group 1 was given monthly injections of the gonadotropin releasing hormone agonist, in an amount of 80 μg/kg im on menstrual day 21 of the second laparotomy cycle. This was continued at 28 day intervals for a total of 3 injections, at which time weekly injections of the antiprogestin RU 486 began, (5 mg/kg im, in oil, initially, then 2 mg/kg/week). RU 486 was continued for a period of 24 weeks.
(§3) Group 2 was given weekly im injections of RU 486 alone (5 mg/kg initially, then 2 mg/kg/week) beginning on menstrual day 1 of the cycle after the endometriosis was confirmed. This was continued for a treatment period of 36 weeks. Group 3 was given doses of the GnRH analog alone for 36 weeks. Group 4 was a control and received vehicle, 0.5 ml of normal saline im, weekly for 36 weeks.
Using ketamine anesthesia, blood was collected on alternate days in all groups for 28 days after the initial treatments following confirmation of active endometriosis. The serum was frozen for later analysis. Thereafter, blood was collected weekly. Blood draws continued until spontaneous menses resumed, or two months after the conclusion of injections, whichever came first. Serum was frozen, labelled, and stored for subsequent radioimmunoassay. Estradiol and progesterone were assayed using RIA (ICN Biomedical, Los Angeles, Calif.).

[2] = test system: peritoneal endometriosis (ectopic endometrial implants); assay: Area of ectopic endometrium on peritoneal surfaces at staging laparotomy; type: in vivo, cynomolgus monkeys (Macaca facularis); conditions: for area of ectopic endometrium on peritoneal surfaces / size of endometrial implants: post-treatment vs pre-treatment and vs control, FIG. 2, Wilcoxon p<0.05; for mean area of peritoneal disease after switch from GnRH analog to RU 486: Group 1, RU 486 for three months after the course of GnRH analog
Experimental: as §1
During the subsequent menstrual cycle, laparotomy was performed 3 to 5 days after the mid-cycle estradiol surge. The presence of ectopic endometrial tissue and the extent of adhesions were noted, with peritoneal implants carefully measured. Photographs of all lesions were taken and assigned a random number for later histological staging of the endometriosis by an independent observer. Biopsies were taken from representative lesions, and the tissue fixed in 10% formalin for histologic examination after hematoxylin and eosin staining.
as §2, §3
After daily injections began, a staging laparotomy was performed every 12 weeks until the end of therapy to assess the progression or regression of the disease.

[3] = test system: bone mineral density of the lumbar spine; assay: Dual X-ray absorptiometry bone mineral density of the lumbar spine; type: in vivo, cynomolgus monkeys (Macaca facularis); conditions: for change in bone density: after three months of treatment, group level; for bone density in fast bone losers: group 1 animals losing bone on GnRH analog (e.g. monkey 2190, FIG. 3), three months GnRH analog, then three months antiprogestin
Experimental: as §2, §3
Urine was collected at the time of blood sampling. The first sample was taken at the time of the first laparotomy and the second sample was taken at the time of the first injection with subsequent samples drawn every four weeks from the time of the second urine sample. Dual X-ray absorptiometry (DXA, Norland) was used to measure the bone mineral density of the lumbar spine. Primates were anesthetized with ketamine and restrained to minimize motion artifact. DXA was performed before injections began and at three month intervals until completion of the study.

[4] = test system: endometrial and vaginal epithelium; assay: Histological assessment of endometrium and vaginal epithelium (hematoxylin and eosin); type: in vivo, cynomolgus monkeys (Macaca facularis); conditions: for ENDOMETRIUM MENTRUAL PHASE / ENDOMETRIUM THICKNESS / VAGINAL EPITHELIUM AND KERATIN: histology; for ENDOMETRIUM MENTRUAL PHASE / ENDOMETRIUM THICKNESS: hematoxylin and eosin; for VAGINAL EPITHELIUM AND KERATIN: thickness
Experimental: Primates were divided equally into four treatment groups (N=8). Group 1 was given monthly injections of the gonadotropin releasing hormone agonist, in an amount of 80 μg/kg im on menstrual day 21 of the second laparotomy cycle. This was continued at 28 day intervals for a total of 3 injections, at which time weekly injections of the antiprogestin RU 486 began, (5 mg/kg im, in oil, initially, then 2 mg/kg/week). RU 486 was continued for a period of 24 weeks. Group 2 was given weekly im injections of RU 486 alone (5 mg/kg initially, then 2 mg/kg/week) beginning on menstrual day 1 of the cycle after the endometriosis was confirmed. This was continued for a treatment period of 36 weeks. Group 3 was given doses of the GnRH analog alone for 36 weeks. Group 4 was a control and received vehicle, 0.5 ml of normal saline im, weekly for 36 weeks. Vaginal epithelium was obtained at the time of each surgery using Kevorkian biopsy forceps taken from the lateral vaginal side of the upper two-thirds of the vagina. At the time of each laparotomy, a small repeat hysterotomy was performed for the purpose of endometrial sampling for histologic examination.

CC(=O)O[C@]1(C(C)=O)CC[C@H]2[C@@H]3C[C@H](C)C4=CC(=O)CC[C@]4(C)[C@H]3CC[C@@]21C [medoxyprogesterone acetate]
hot flashes and urinary calcium loss (uterine leiomyomata; add-back regimen with leuprolide): reduced
total uterine volume (uterine leiomyomata; add-back regimen with leuprolide, not back to baseline values): modest increase
effect on agonist-induced decrease of nonmyoma volume (uterine leiomyomata; concomitant treatment with leuprolide): reverse the effectiveness

C#C[C@]1(O)CC[C@H]2[C@@H]3CCC4=Cc5oncc5C[C@]4(C)[C@H]3CC[C@@]21C [danazol, 17-α-pregna-2,4-dien-20-yno[2,3-d]-isoxazol-17-ol]
side effects (endometriosis; in vivo): many androgenic side effects
efficacy in treatment of endometriosis (endometriosis; producing a hypoestrogenic milieu): effective medication for the treatment of endometriosis

CCNC(=O)[C@@H]1CCCN1C(=O)[C@H](CCCNC(=N)N)NC(=O)[C@H](CC(C)C)NC(=O)[C@@H](CC(C)C)NC(=O)[C@H](Cc1ccc(O)cc1)NC(=O)[C@H](CO)NC(=O)[C@H](Cc1c[nH]c2ccccc12)NC(=O)[C@H](Cc1c[nH]cn1)NC(=O)[C@@H]1CCC(=O)N1 [GnRH analog, leuprolide acetate]
mean tonic serum estradiol level [1]: 24.2 ± 17 pg/mL
suppression of ovulation [1]: suppression of ovulation
area of ectopic endometrium on peritoneal surfaces / size of endometrial implants [2]: unequivocal limiting impact
change in bone density [3]: no change
bone density in fast bone losers [3]: significant degree of bone loss
ENDOMETRIUM MENTRUAL PHASE [4]: weakly proliferative
ENDOMETRIUM THICKNESS [4]: uniformly thin
ENDOMETRIUM THICKNESS ([4]; listed as ANALOG ONLY): THIN
VAGINAL EPITHELIUM AND KERATIN [4]: THIN

CC#C[C@]1(O)CC[C@H]2[C@@H]3CCC4=CC(=O)CCC4=C3[C@@H](c3ccc(N(C)C)cc3)C[C@@]21C [RU 486, mifepristone]
mean tonic serum estradiol level [1]: 57.8 ± 34.6 pg/mL
suppression of ovulation [1]: suppression of ovulation
mean area of peritoneal disease after switch from GnRH analog to RU 486 [2]: remained the unchanged
mean area of peritoneal disease after switch from GnRH analog to RU 486 ([2]; listed as antiprogestin): able to sustain the reduced surface of peritoneal endometriosis
area of ectopic endometrium on peritoneal surfaces / size of endometrial implants [2]: unequivocal limiting impact
bone density, PRE-TREATMENT (MEAN ± SD) ([3]; DXA lumbar spine, baseline before injections): 0.501 ± 0.029
bone density, AFTER 3 MONTHS ([3]; DXA lumbar spine, mean ± SD, in group 1 the first 3 months are GnRH analog): 0.541 ± 0.033
change in bone density [3]: marginally significant increase in bone density
bone density in fast bone losers [3]: counteracted this loss; also recorded: returned to baseline
vaginal atrophy ([4]; cynomolgus monkey, in vivo): not noted
ENDOMETRIUM MENTRUAL PHASE [4]: interval phase
ENDOMETRIUM THICKNESS ([4]; listed as antiprogestin): thinner than in control monkeys; also recorded: remained moderately thin
VAGINAL EPITHELIUM AND KERATIN ([4]; listed as antiprogestin): greater in the antiprogestin group than in the GnRH analog groups; also recorded: thicker
